Measurements as given in PMC12421817, “c-di-GMP regulates bacterial NAD biosynthesis via targeting the transcriptional repressor NadR” (mBio, 2025).

Tests used:
YcgR = biological target: T1, YcgR (Salmonella enterica, UniProt Q8ZP19); assay: UV-crosslinking with biotinylated c-di-GMP (YcgR as positive-control protein); assay type: binding
T1 construct: His6-YcgR

NadR = biological target: T2, NadR (Salmonella enterica, UniProt P24518); assay: ITC; also UV-crosslinking with unlabeled competitor, EMSA, enzyme activity stimulation; assay type: binding
T2 construct: N-terminal His6-tagged NadR
T2 sequence (P24518 1-410): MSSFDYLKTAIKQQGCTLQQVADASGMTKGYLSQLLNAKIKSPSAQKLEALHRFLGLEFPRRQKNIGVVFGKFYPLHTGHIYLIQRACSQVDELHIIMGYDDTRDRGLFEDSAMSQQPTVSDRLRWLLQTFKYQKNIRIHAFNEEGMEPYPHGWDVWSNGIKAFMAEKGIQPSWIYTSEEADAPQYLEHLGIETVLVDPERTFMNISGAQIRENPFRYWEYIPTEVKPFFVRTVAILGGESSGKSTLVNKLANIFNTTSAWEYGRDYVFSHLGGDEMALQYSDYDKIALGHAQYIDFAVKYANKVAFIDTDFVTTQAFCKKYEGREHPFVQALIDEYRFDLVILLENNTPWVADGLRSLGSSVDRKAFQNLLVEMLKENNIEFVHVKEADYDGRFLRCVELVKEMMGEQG

[1] = biological target: T3, NadR (Salmonella enterica serovar Typhimurium) (UniProt P24518); assay: EMSA; conditions: EMSA: 50 ng DNA, 20 mM Tris pH 7.5, 100 mM NaCl, 10% glycerol, 4 mM MgCl2, 1% NP-40, 1 mM DTT, 25 uL, 20 min room temperature; 6% native PAGE, 0.5x TBE, SYBR …
T3 sequence: T2 sequence (P24518 1-410)

T1 sequence (Q8ZP19 whole entry): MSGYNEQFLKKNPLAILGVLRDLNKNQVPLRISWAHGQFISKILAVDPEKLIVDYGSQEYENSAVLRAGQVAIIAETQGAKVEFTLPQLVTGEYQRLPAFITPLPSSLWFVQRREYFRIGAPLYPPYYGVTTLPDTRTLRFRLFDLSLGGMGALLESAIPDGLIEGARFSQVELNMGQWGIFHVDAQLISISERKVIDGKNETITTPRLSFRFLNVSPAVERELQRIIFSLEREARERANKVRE

Nc1nc2c(ncn2[C@@H]2O[C@@H]3COP(=O)(O)O[C@H]4[C@@H](O)[C@H](n5cnc6c(=O)[nH]c(N)nc65)O[C@@H]4COP(=O)(O)O[C@H]3[C@H]2O)c(=O)[nH]1 [c-di-GMP]
UV-crosslinking with biotinylated c-di-GMP (YcgR as positive-control protein) (YcgR): YcgR could obviously bind biotinylated c-di-GMP, while InvF, which was used as a negative control, showed no biotin-binding signal
Kd (NadR): 160 ± 20 nM

GCTCATCGTGGCTTCTCGTTTTACTGACTTAACGAAACAACCGAATGAAAGCGTAATAAACGCCACAATCGGTTAATTTGTTTTATATGCTAAACAAGATAGCTGATTCAATAAGGAAAGTCACAATAATTACGTAGCCCCGTATCTGATGGCGGCGTAACGTCTTATCTGGCCTACGTGAGCGGTGCCGTCTGTAGGCCTGAT (double strand) [nadA-pnuC promoter]
binding [1]: binds

GGTTCTTGTTTAATTTACTAAACATGGTTGCGGCAGATTAGCACTATATGGCGCTAAAAAGCACGTTATGATTTCGCTGGTGTTGTGCTTATTAAACATAAAATAAAAATACGGCGAGAGATAAACGGCAAAAAATATTTTATAGGGCAGGGTGTTAGCGTCGGATTTTGTAGTGAAATAAAGATGCTGTTAGGTTACTC (double strand) [nadB promoter]
binding [1]: binds
